According to patent publication US20230390243A1, “Compositions and Uses Thereof” (Purposeful IKE, priority 2020, published 2023):
Several values for one entry are separate records, joined by “and”; a condition that tells them apart may be missing. Equal entries are not always repeated. Where two headings read alike, the source gives them in different places.

What was measured:
[1] = test system: Fmr1 KO mice; assay: Sociability: three chamber partition test; type: in vivo; parameters: unit not given here; conditions: for Mean 2 (F_ group mean), Sociability / Mean Diff. (F_KO-V vs. F_ group), Sociability: F_ values; for Mean 2 (F_ group mean), Sociability / Mean 2 (N_ group mean), Sociability / Mean 2 (group mean), Sociability: KO group mean; for Mean 2 (F_ group mean), Sociability / Mean 2 (N_ group mean), Sociability: table against F_KO-V; for Mean 2 (F_ group mean), Sociability: doses as E34; for Mean Diff. (F_KO-V vs. F_ group), Sociability: Ergoloid 2 + Oxitriptan 40 mg/kg; for Mean 2 (N_ group mean), Sociability: doses as E37; for Mean 2 (group mean), Sociability: table against N_WT-V (mean 99.10), doses as E13; for Mean Diff. (N_WT-V vs. group), Sociability: Dunnett's test against N_WT-V, Ergoloid 2 + Sumatriptan 10, Ergoloid 2 + Oxitriptan 40 mg/kg
Experimental: (§1) Fmr1 KO mice backcrossed to the FVB strain and WT littermates were used during experiments. TransnetXY Automated Genotyping (www.transnetyx.com/). TRANSNETYX, INC., 8110 Cordova Rd. Suite 119, Cordova, TN 38016, USA was used for genotyping. The animals were pretreated for 14 days. The active ingredients of Sumatriptan and Ergoloid were in a water carrier, whereas oxitriptan was in a methanol carrier.
(§2) The mice were housed in plastic cages (35×30×12 cm), 5 in each. The room temperature (21±2° C.),relative humidity (55±5%), a 12-h light-dark cycle (lights on 7 a.m.-7 p.m.) and air exchange (16 times per h) were automatically controlled. The animals had free access to commercial food pellets and water. Testing was conducted during the light phase. Ten mice per treatment group were used for the AGS experiments. Experiments were conducted in line with the requirements of the UK Animals (Scientific Procedures) Act, 1986.
(§3) All experiments were conducted with the experimenter blind to genotype and drug treatment. Separate investigators prepared and coded dosing solutions, allocated the mice to the study treatment groups, dosed the animals, and collected the Audiogenic Seizure data.
(§4) Behavior testing was conducted at 2 weeks. The behavioral tests were as follows: 1. Hyperactivity: Open field; 2. Stereotypy: Self-grooming; 3. Sociability: Three chamber partition test; 4. Memory and Learning: Novel Object Recognition; 5. Anxiety: hyponeophagia; and 6. Test of daily living: marble burying
For sociability a three chamber partition test was utilized. The three-chamber paradigm test known as Crawley's sociability and preference for social novelty protocol has previously been successfully employed to study social affiliation and social memory in several inbred and mutant mouse lines. The main principle of the test was based on the free choice by a subject mouse to spend time in any of three box's compartments during two experimental sessions, including indirect contact with one or two mice with which it was unfamiliar (Kaidanovich-Beilin 2011).
(§5) The treatment of the mice with OX (Oxitriptan), SU (Sumatriptan), ER (Ergoloid mesylates) were according to the matrix shown below in Table 1.

[2] = test system: Fmr1 KO mice; assay: Memory and learning: Novel Object Recognition (NOR); type: in vivo; parameters: unit not given here; conditions: for Mean 2 (group mean), NOR: table against N_WT-V (mean 13.90), doses as E10; for Mean Diff. (N_WT-V vs. group), NOR: Dunnett's test against N_WT-V, Ergoloid 2 + Sumatriptan 10, Ergoloid 2 + Oxitriptan 40 mg/kg
Experimental: as §1, §2, §3, §4
For memory and learning, a novel object recognition (NOR) task was used to evaluate the rodents' ability to recognize a novel object in the environment. […] The task procedure consists of three phases: habituation, familiarization, and test phase (Antunes 2012).
as §5

[3] = test system: Fmr1 KO mice; assay: Stereotypy: self-grooming; type: in vivo; parameters: unit not given here; conditions: for Mean Diff. (KO-V vs. group), Stereotypy: Dunnett's test against KO-V; for Mean Diff. (KO-V vs. group), Stereotypy / Data table Stereotypy (individual animals): Sumatriptan 20, Oxitriptan 40, Ergoloid 4 mg/kg, Ergoloid 2 + Oxitriptan 40 mg/kg; for Data table Stereotypy (individual animals): KO mice, one value per animal
Experimental: as §1, §2, §3, §4
For stereotypy, self-grooming was assessed. Self-grooming in animals is an innate behaviour that is involved in hygiene maintenance and other physiologically important processes, including thermoregulation, social communication and de-arousal. It is one of the most frequently observed behaviours in awake rodents and has a patterned, sequential organization with characteristic cephalocaudal progression (Kalueff 2016).
as §5

[4] = test system: Fmr1 KO mice; assay: Test of daily living (marble burying / nesting); type: in vivo; parameters: scale not given here; conditions: for Mean Diff. (KO-V vs. group), Test of daily living: Dunnett's test against KO-V, Ergoloid 2 + Oxitriptan 40 mg/kg; for Mean Diff. (KO-V vs. group), Test of daily living / Mean Diff. (WT-V vs. group), Test of daily living: Sumatriptan 20, Oxitriptan 40, Ergoloid 4 mg/kg; for Mean Diff. (WT-V vs. group), Test of daily living: Dunnett's test against WT-V, Column F Ergoloid 2 + Sumatriptan 10, Column G Ergoloid 2 + Oxitriptan 40 mg/kg; for Mean 2 (group mean), Test of daily living: KO group mean, n 10
Experimental: as §1, §2, §3, §4
For test of daily living, nesting was assessed as nest building is an innate behavior in rodents, even when raised in laboratory settings. Synthetic and/or natural materials (such as twine, tissue, cotton, paper, and hay) are provided as a gauge of their overall well-being and as an ancillary assessment to predict the possible decline in cognition. Typically, changes in nesting behaviors, such as failure to create a nest, indicate a change in health or welfare. In addition, nesting behavior is sensitive to many environmental and physiological challenges, as well as many genetic mutations underlying pathological disease states (Gaskill 2013).
as §5

[5] = test system: Fmr1 KO mice; assay: Open field test (hyperactivity); type: in vivo; parameters: unit not given here; conditions: for Mean 2 (group mean), Open Field: KO group mean, n 10
Experimental: as §1, §2, §3, §4
For hyperactivity, the open field test (OFT) is a common measure of exploratory behavior and general activity in both mice and rats, where both the quality and quantity of the activity can be measured. Principally, the open field (OF) is an enclosure, generally square, rectangular, or circular in shape with surrounding walls that prevent escape. The OFT is also commonly used as a mechanism to assess the sedative, toxic, or stimulant effects of compounds (Gould 2009).
as §5

[6] = test system: Fmr1 KO mice; assay: Anxiety: hyponeophagia test; type: in vivo; parameters: unit not given here; conditions: for Mean Diff. (KO-V vs. group), Hyponeophagia: Dunnett's test against KO-V, Ergoloid 2 + Oxitriptan 40 mg/kg; for Mean 2 (group mean), Hyponeophagia: KO group mean, n 10
Experimental: as §1, §2, §3, §4
For anxiety a hyponeophagia test was conducted. Mice and rats cannot vomit, due to the tightness of the cardiac sphincter of the stomach, so to overcome the problem of potential food toxicity they have evolved a strategy of first ingesting only very small amounts of novel substances. The amounts ingested then gradually increase until the animal has determined whether the substance is safe and nutritious. So the old rat-catchers would first put a palatable substance such as oatmeal, which was to be the vehicle for the toxin, in the infested area (Deacon 2011).
as §5

[7] = test system: patients with autism or Asperger's disorder; conditions: versus placebo; cited from earlier work
[8] = cited from earlier work
[9] = test system: FMR1 mice; assay: Behavioral experiments, FXS phenotypes overall; type: in vivo; conditions: summary statement
Experimental: as §1, §4, §5

[10] = Dunnett's test against F_KO-V, Sumatriptan 20, Oxitriptan 40, Ergoloid 4 mg/kg
[11] = Fmr1 KO mice, Oxitriptan 40 mg/kg, F column, individual animals
[12] = Fmr1 KO mice, Oxitriptan 40 mg/kg, individual animals
[13] = N_ values, Sumatriptan 20, Oxitriptan 40, Ergoloid 4 mg/kg
[14] = table against KO-V (mean 1.200), doses as E25
[15] = table against WT-V (mean 4.800), doses as E7
[16] = table against KO-V (mean 8263), doses as E16
[17] = table against WT-V (mean 4207), doses as E1
[18] = Sumatriptan 20, Oxitriptan 40, Ergoloid 4 mg/kg
[19] = table against KO-V (mean 237.3), doses as E22
[20] = table against WT-V (mean 145.5), doses as E4
[21] = Fmr1 KO mice, Sumatriptan 20 mg/kg, F column, individual animals
[22] = Fmr1 KO mice, Sumatriptan 20 mg/kg, individual animals
[23] = N_ values, Dunnett's test against F_KO-V, Sumatriptan 20, Oxitriptan 40, Ergoloid 4 mg/kg, Column N Ergoloid 2 + Oxitriptan 40 mg/kg

SMILES: N[C@@H](Cc1c[nH]c2ccc(O)cc12)C(=O)O [Oxitriptan]
- Mean 2 (F_ group mean), Sociability [1]: 52.10
- Mean Diff. (F_KO-V vs. F_ group), Sociability [1, 10]: 29.50
- Sociability, F_KO-Oxitriptan [1, 11]: 54 and 52 (2×) and 50 (2×) and 53 (2×) and 51 and 55
- Sociability, N_KO-Oxitriptan [1, 12]: 104 and 98 (2×) and 97 (2×) and 100 (2×) and 99 (2×) and 96
- Mean 2 (N_ group mean), Sociability ([1]; N_ values): 98.80
- Mean 2 (group mean), Sociability ([1]; N_ values): 96.80
- Mean Diff. (N_WT-V vs. group), Sociability [1, 13]: 0.3000
- Novel Object Recognition, F_KO-Oxitriptan [2, 11]: 6 (4×) and 5 (3×) and 9 (2×) and 8 (2×)
- Novel Object Recognition, N_KO-Oxitriptan [2, 12]: 10 (4×) and 12 and 14 and 8 (2×) and 15 and 13 and 9
- Mean 2 (N_ group mean), NOR ([2]; N_ values, KO group mean, table against F_KO-V, doses as E31): 10.82
- Mean 2 (group mean), NOR ([2]; N_ values, KO group mean): 10.82
- Mean Diff. (N_WT-V vs. group), NOR [2, 13]: 3.082
- Mean Diff. (KO-V vs. group), Stereotypy [3]: 10.10
- Mean 2 (group mean), Stereotypy ([3]; KO group mean, n 10, table against KO-V (mean 45.40), doses as E19): 35.30
- Data table Stereotypy (individual animals) [3]: 34 and 37 (2×) and 40 and 36 and 38 (2×) and 33 and 31 and 29
- Mean Diff. (KO-V vs. group), Test of daily living [4]: −3.700
- Mean Diff. (WT-V vs. group), Test of daily living [4]: −0.1000
- Tests of daily living, KO-Oxitriptan [4, 12]: 5 (9×) and 4
- Mean 2 (group mean), Test of daily living [4, 14]: 4.800
- Mean 2 (group mean), Test of daily living [4, 15]: 4.900
- Mean Diff. (KO-V vs. group), Open Field ([5]; Dunnett's test against KO-V, Sumatriptan 20, Oxitriptan 80, Ergoloid 4 mg/kg, Ergoloid 2 + Oxitriptan 40 mg/kg): 3543
- Mean 2 (group mean), Open Field [5, 16]: 4720
- Mean 2 (group mean), Open Field [5, 17]: 4720
- Mean Diff. (KO-V vs. group), Hyponeophagia [6, 18]: 91.10
- Mean Diff. (WT-V vs. group), Hyponeophagia ([6]; Dunnett's test against WT-V, Sumatriptan 20, Oxitriptan 40, Ergoloid 4 mg/kg, Column F Ergoloid 2 + Sumatriptan 10, Column G Ergoloid 2 + Oxitriptan 40 mg/kg): −0.7000
- Hyponeophagia, KO-Oxitriptan [6, 12]: 151 and 145 and 150 and 140 (2×) and 147 and 143 and 152 and 148 and 146
- Mean 2 (group mean), Hyponeophagia [6, 19]: 146.2
- Mean 2 (group mean), Hyponeophagia [6, 20]: 146.2

SMILES: CNS(=O)(=O)Cc1ccc2[nH]cc(CCN(C)C)c2c1 [Sumatriptan, 1-[3-[2-(dimethylamino)ethyl]-1H-indol-5-yl]-N-methylmethanesulfonamide]
- GH response to sumatriptan [7]: significantly greater than to placebo
- Mean 2 (F_ group mean), Sociability [1]: 62.20
- Mean Diff. (F_KO-V vs. F_ group), Sociability [1, 10]: 19.40
- Sociability, F_KO-Sumatriptan [1, 21]: 61 (2×) and 64 and 65 (2×) and 60 (3×) and 63 (2×)
- Sociability, N_KO-Sumatriptan [1, 22]: 99 and 97 (2×) and 103 and 98 and 90 and 102 and 100 and 95 and 101
- Mean 2 (N_ group mean), Sociability ([1]; N_ values): 98.20
- Mean 2 (group mean), Sociability ([1]; N_ values): 98.20
- Mean Diff. (F_KO-V vs. N_ group), Sociability [1, 23]: −18.80
- Mean Diff. (N_WT-V vs. group), Sociability [1, 13]: 0.9000
- Mean Diff. (F_KO-V vs. F_ group), NOR ([2]; F_ values, Dunnett's test against F_KO-V, Sumatriptan 20, Oxitriptan 40, Ergoloid 4 mg/kg, Ergoloid 2 + Oxitriptan 40 mg/kg): −0.2000
- Novel Object Recognition, F_KO-Sumatriptan [2, 21]: 9 (2×) and 5 (2×) and 8 (2×) and 7 (2×) and 4 and 6
- Novel Object Recognition, N_KO-Sumatriptan [2, 22]: 6 (2×) and 8 (2×) and 9 (3×) and 5 and 7
- Mean 2 (group mean), NOR ([2]; N_ values, KO group mean): 7.300
- Mean Diff. (F_KO-V vs. N_ group), NOR [2, 23]: −0.7000
- Mean Diff. (N_WT-V vs. group), NOR [2, 13]: 6.600
- Mean Diff. (KO-V vs. group), Stereotypy [3]: 14.60
- Data table Stereotypy (individual animals) [3]: 29 and 35 and 31 (2×) and 30 (3×) and 32 and 28 and 33
- Mean Diff. (KO-V vs. group), Test of daily living [4]: −3.500
- Mean Diff. (WT-V vs. group), Test of daily living [4]: 0.1000
- Tests of daily living, KO-Sumatriptan [4, 22]: 5 (7×) and 4 (3×)
- Mean 2 (group mean), Test of daily living [4, 14]: 4.700
- Mean 2 (group mean), Test of daily living [4, 15]: 4.700
- Mean Diff. (WT-V vs. group), Open Field ([5]; Dunnett's test against WT-V, Sumatriptan 20 mg/kg, 5-HTP 80 mg/kg, EM 4 mg/kg, Column F Ergoloid 2 + Sumatriptan 10 mg/kg, Ergoloid 2 + Oxitriptan 40 mg/kg): −3209
- Mean 2 (group mean), Open Field [5, 16]: 7416
- Mean 2 (group mean), Open Field [5, 17]: 7416
- half life ([8]; administered orally): 1.7 h
- half life ([8]; administered subcutaneous): 1.9 h
- effect on FXS phenotypes [9]: ameliorates the FXS phenotypes in FMR1 mice
- Mean Diff. (KO-V vs. group), Hyponeophagia [6, 18]: 82.60
- Hyponeophagia, KO-Sumatriptan [6, 22]: 154 (2×) and 157 (2×) and 148 and 153 and 155 and 158 and 159 and 152
- Mean 2 (group mean), Hyponeophagia [6, 19]: 154.7
- Mean 2 (group mean), Hyponeophagia [6, 20]: 154.7
